Experimental data taken from patent EP4628084A1, “NAPHTHALENE-DERIVATIVE-BASED THERAPEUTIC DRUG FOR OPHTHA[…]” (Kyoto University, priority 2022, dated 2024).

Tests used:
Type in all cases: physicochemical
[1] = Solubility of KUS121 in water; details: at 25°C
[2] = Preliminary experiment: soluble concentration of KUS121 in normal PBS buffer
Description: The maximum dose of KUS121 to the vitreous body of the eye is 50 µg/eye, and the liquid volume that can be administered into the vitreous body is preferably about 100 µL or less. […] In view of these premises and the above-mentioned problems, the present inventors have extensively studied to design an injection formulation of KUS121 in a normal PBS buffer that can be administered into the vitreous body, wherein about 50 µg of KUS121 is dissolved in a normal PBS buffer (about 100 µL), i.e., a formulation that allows a concentration setting of 0.5 mg/mL and matches the osmotic pressure in the vitreous body. As a result, the present inventors have conducted the following trials and then have found the following things: i.e., the present inventors first prepared 1 mL of 0.1 mg/mL KUS121 aqueous solution by dissolving KUS121 in water for injection and then adding a PBS buffer solution with about twice the concentration of normal to the KUS121 solution, in which the PBS concentration is 1/5 of the normal concentration. Then, the prepared KUS121 aqueous solution was lyophilized, and 200 µL (0.2 mL) of water for injection [200 µL (0.2 mL) corresponds to 1/5 the volume before the lyophilization] was added to the lyophilized product. […]

[3] = Solubility of KUS121 in PBS buffer at different temperatures (filtrate quantified by HPLC); details: for solubility of KUS121: detection limit about 1 µg/mL, quantification limit 5 µg/mL; for solubility: PBS buffer solution, aqueous buffer, thermodynamic from solid
Description: A PBS buffer solution comprising 1.6 mg of sodium chloride, 0.229 mg of disodium hydrogen phosphate, 0.04 mg of potassium dihydrogen phosphate, and 0.04 mg of potassium chloride per mL of the solution was prepared, and the temperature of the PBS buffer solution was adjusted to 5°C, 25°C, 40°C, 50°C, and 60°C. KUS121 was added little by little to each solution at the different temperatures and stirred. After stirring for a sufficient time period from the time when some undissolved material appeared, the solution was filtered. As a result of quantifying the filtrate using HPLC, the solubility of KUS121 at each temperature was as follows (detection limit: about 1 µg/mL, quantification limit: 5 µg/mL) .

For `Cc1cc(F)ccc1-c1ccc(N=Nc2cc(S(=O)(=O)[O-])c3ccccc3c2N)cn1.O.O.[Na+]` [KUS121, Sodium 4-amino-3-[6-(4-fluoro-2-methylphenyl)pyridin-3-ylazo]naphthalene-1-sulfonate dihydrate], the solubility [1] was roughly 2800 µg/mL, the “solubility of KUS121 in PBS buffer” value ([2]; PBS buffer, result in words) was “extremely low” and the solubility ([2]; normal PBS buffer solution, aqueous buffer, normal PBS buffer, room temperature, preliminary experiment) was no more than 10 µg/mL. For the same compound, the “solubility of KUS121” value ([3]; 5°C) was “below detection limit”, the “solubility of KUS121” value ([3]; 25°C) was “below detection limit” and the solubility ([3]; 40°C) was 7 µg/mL. It also gave a solubility ([3]; 50°C) of 47 µg/mL and a solubility ([3]; 60°C) of 132 µg/mL.
